# Assay results: patent US20160213684A1, “SOLID DISPERSION OF A SELECTIVE MODULATOR OF THE PROGESTERONE RECEPTOR” (LABORATOIRE HRA-PHARMA, priority 2012, published 2016)
# What was measured:
# [1] = single dose of 30 mg, within 120 hours following unprotected or poorly protected sexual intercourse; cited from earlier work
# [2] = system: uterine fibromas; details: chronic administration, 5 mg or 10 mg per day; cited from earlier work
# [3] = in vitro dissolution test (paddle dissolution device, hard gelatin capsule with 30 mg UPA); assay type: physicochemical; details: for Percentages of UPA released, expressed relative to the initial amount of UPA contained per capsule: 900 ml medium at gastric pH, 0.1% SDS, 37°C, 50 rpm, mean of 3 experiments
# Method: The in vitro dissolution test can be carried out using any commercially available dissolution device comprising paddles. Example 1 hereinafter presents implementing conditions for determining the in vitro dissolution rate of a solid dispersion according to the invention. Briefly, an amount of solid dispersion representing 30 mg of active ingredient is placed in a gelatin capsule. This gel capsule is then placed in 900 ml of a medium buffered at gastric pH, comprising 0.1% of SDS, at 37±0.5° C., and subjected to stirring at 50 revolutions per minute (rpm) (speed of rotation of the paddles of the dissolution device). The dissolution of the active ingredient in the medium can be monitored by spectrophotometry, preferably at the maximum wavelength of absorbance. A gastric pH is typically a pH of 1 to 3.
# For each solid dispersion obtained by means of the “solvent evaporation” method (§1.b) above), hard gelatin capsules containing an amount of solid dispersion corresponding to 30 mg of UPA per capsule were prepared.
# The dissolution profiles were obtained as follows:
# Each capsule containing a solid dispersion was placed in a bowl of the paddle dissolution device containing 900 ml of a dissolution medium. The dissolution medium is an aqueous solution buffered at gastric pH and comprising 0.1% by weight of SDS. The conditions for carrying out the in vitro dissolutions are the following: • Paddle rotation speed: 50 revolutions per minute (rpm); • Temperature: 37° C.±0.5° C.
# The dissolution of the UPA was monitored by spectrophotometry.
# By way of control experiment, a gelatin capsule containing 30 mg of micronized ulipristal acetate was used. For each solid dispersion evaluated, the dissolution experiment was reproduced 3 times.
structure (smiles),measurement,setting,value
"CC(=O)O[C@]1(C(C)=O)CCC2C3CCC4=CC(=O)CCC4=C3[C@@H](c3ccc(N(C)C)cc3)C[C@@]21C (stereo partly drawn) [Micronized UPA, 17α-acetoxy-11β-[4-(N,N-dimethylamino)phenyl]-19-norpregna-4,9-diene-3,20-dione]",prevention of unwanted pregnancy,[1],makes it possible to prevent an unwanted pregnancy
same,symptoms associated with uterine fibromas,[2],significantly reduce the symptoms associated with uterine fibromas
same,therapeutic benefit versus the reference treatment leuprolide acetate,[2],greater than that of the reference treatment
same,percentage of ulipristal acetate released into the medium,"[3]; t=20 min as stated in the text, capsule",approximately 42%
same,"Percentages of UPA released, expressed relative to the initial amount of UPA contained per capsule",[3]; time 0 min,0%
same,"Percentages of UPA released, expressed relative to the initial amount of UPA contained per capsule",[3]; time 1 min,0.23%
same,"Percentages of UPA released, expressed relative to the initial amount of UPA contained per capsule",[3]; time 5 min,5.69%
same,"Percentages of UPA released, expressed relative to the initial amount of UPA contained per capsule",[3]; time 7.5 min,15.28%
same,"Percentages of UPA released, expressed relative to the initial amount of UPA contained per capsule",[3]; time 10 min,21.73%
same,"Percentages of UPA released, expressed relative to the initial amount of UPA contained per capsule",[3]; time 15 min,29.46%
same,"Percentages of UPA released, expressed relative to the initial amount of UPA contained per capsule",[3]; time 20 min,35.2%
same,"Percentages of UPA released, expressed relative to the initial amount of UPA contained per capsule",[3]; time 30 min,42.14%
same,"Percentages of UPA released, expressed relative to the initial amount of UPA contained per capsule",[3]; time 45 min,49.98%
same,"Percentages of UPA released, expressed relative to the initial amount of UPA contained per capsule",[3]; time 60 min,55.62%
